The values that follow come from PubChem BioAssay (NCI).

Some test systems named below: 786-0 renal; BT-549 breast; CAKI-1 renal; HCC-2998 colon; HCT-116 colon; HOP-92 NSCLC; SF-295 CNS; SK-OV-3 ovarian; SN12C renal; TK-10 renal.
Common to all, as to assay: growth of human tumour cells (NCI), 48 h

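Where inhibition never reached the appropriate level, the endpoint shown equals the highest concentration tested. Otherwise, values were interpolated linearly from a five-concentration, 48-hour dose response in 96-well plates. Abbreviation: GI50, concentration required for 50% inhibition of growth. Definition used: TGI = concentration required for complete inhibition of growth.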 Some results are limits rather than exact numbers.

Consider `NC1(Cc2ccc(Cl)cc2)CCN(c2ncnc3[nH]ccc23)CC1`, for which the GI50 was 2.68 µM with 786-0 renal; 3.45 µM in the assay on BT-549 breast; 3.94 µM with CAKI-1 renal; 3.89 µM in the assay with HCC-2998 colon; 5.18 µM with HCT-116 colon; 1.09 µM in the assay on HOP-92 NSCLC. In addition, the GI50 is 1.48 µM in the assay on SF-295 CNS, 2.35 µM in the assay on SK-OV-3 ovarian, 4.4 µM with SN12C renal and 3.17 µM in the assay with TK-10 renal. Besides, the TGI turned out to be 17 µM with 786-0 renal; 16.3 µM in the assay with BT-549 breast; 19.3 µM in the assay with CAKI-1 renal; 17 µM with HCC-2998 colon; 38.7 µM in the assay on HCT-116 colon; 7.06 µM in the assay on HOP-92 NSCLC. Also, the TGI stood at 13.5 µM with SF-295 CNS, 15.8 µM in the assay on SK-OV-3 ovarian, 28.8 µM with SN12C renal and 14.8 µM in the assay with TK-10 renal.

With `COc1ccc(-c2csc(NC(=O)CN3CCN(c4cc5c(cc4F)c(=O)c(C(=O)O)cn5C4CC4)CC3)n2)cc1`, the GI50 is 3.6 µM in the assay on 786-0 renal; 3.03 µM in the assay with BT-549 breast; 3.57 µM in the assay on CAKI-1 renal; 4.8 µM with HCC-2998 colon; 3.1 µM in the assay on HCT-116 colon; 2.82 µM in the assay on HOP-92 NSCLC. Also, the GI50 with SF-295 CNS was 2.73 µM; in the assay on SK-OV-3 ovarian, 2.86 µM; in the assay with SN12C renal it was 3.37 µM; in the assay with TK-10 renal, 4.62 µM. In addition, the TGI with 786-0 renal is 31.1 µM; in the assay on BT-549 breast, more than 100 µM; in the assay on CAKI-1 renal it was more than 100 µM; in the assay on HCC-2998 colon it was more than 100 µM; with HCT-116 colon, more than 100 µM; in the assay with HOP-92 NSCLC it was 7.17 µM. Moreover, the TGI in the assay on SF-295 CNS is 15.9 µM; with SK-OV-3 ovarian, 8.32 µM; in the assay with SN12C renal it was more than 100 µM; with TK-10 renal it was 22.9 µM.

`COc1cc2oc3c(c(=O)c2c(O)c1/C=C/C(C)C)C(C=C(C)C)Oc1cc(O)ccc1-3` (configuration not stated): the TGI was determined as 30.6 µM with 786-0 renal; 23.4 µM with BT-549 breast; 32.2 µM in the assay with CAKI-1 renal; 25.2 µM in the assay with HCC-2998 colon; 28.1 µM in the assay on HCT-116 colon; 29.3 µM with HOP-92 NSCLC. Besides, the TGI with SF-295 CNS was 31.4 µM; in the assay with SK-OV-3 ovarian it was 30.5 µM; with SN12C renal it was 30.4 µM; in the assay with TK-10 renal, 31.5 µM.

Regarding `COc1ccc(CCN2CCC(CN(C)Cc3cnn(-c4ccccc4)c3)CC2)cc1`, the GI50 was 12 µM in the assay with 786-0 renal; 14.5 µM in the assay on BT-549 breast; 5.42 µM in the assay with CAKI-1 renal; 5.13 µM with HCC-2998 colon; 11.8 µM with HCT-116 colon; 4.61 µM in the assay with HOP-92 NSCLC. In addition, the GI50 with SF-295 CNS was 12.1 µM; in the assay on SK-OV-3 ovarian, 16.2 µM; in the assay with SN12C renal, 21.3 µM; in the assay with TK-10 renal, 16.3 µM. Further, the TGI in the assay with 786-0 renal was determined as 24.6 µM; with BT-549 breast it was 36.2 µM; in the assay with CAKI-1 renal it was 19.9 µM; with HCC-2998 colon, 18.1 µM; in the assay with HCT-116 colon it was 25.6 µM; in the assay on HOP-92 NSCLC, 19.3 µM. Further, the TGI with SF-295 CNS was 25.2 µM; in the assay with SK-OV-3 ovarian, 39.9 µM; with SN12C renal, more than 100 µM; in the assay on TK-10 renal, 32.6 µM.

Regarding `CC(C)(C)OC(=O)NCc1cccc(N=C=S)c1`, the GI50 in the assay on 786-0 renal was 21.6 µM; in the assay with BT-549 breast, 19.2 µM; in the assay with CAKI-1 renal, 20.5 µM; with HCC-2998 colon, 16.3 µM; with HCT-116 colon, 18 µM; with HOP-92 NSCLC it was 14.6 µM. Further, the GI50 is 17.5 µM in the assay on SF-295 CNS, 35.5 µM in the assay on SK-OV-3 ovarian, 22.1 µM in the assay with SN12C renal and 25.8 µM in the assay on TK-10 renal. Besides, the TGI was 44.1 µM in the assay on 786-0 renal; 44.2 µM with BT-549 breast; 53.9 µM in the assay with CAKI-1 renal; 30.9 µM with HCC-2998 colon; 36 µM with HCT-116 colon; 62.2 µM with HOP-92 NSCLC. Besides, the TGI in the assay on SF-295 CNS was 40.9 µM; in the assay with SK-OV-3 ovarian it was more than 84.9 µM; with SN12C renal, 60.3 µM; in the assay with TK-10 renal, 70.8 µM.

As for `COc1cc2c(c(OC)c1OC)-c1ccc(N=NC(N)=S)c(=O)cc1[C@@H](NC(C)=O)CC2`, the GI50 in the assay on 786-0 renal was 1.69 µM; in the assay with BT-549 breast it was 0.624 µM; in the assay on CAKI-1 renal, more than 24.4 µM; in the assay with HCC-2998 colon, 0.311 µM; in the assay on HCT-116 colon, 0.396 µM; with HOP-92 NSCLC, 1.97 µM. Further, the GI50 in the assay with SF-295 CNS was 1.45 µM; in the assay with SK-OV-3 ovarian, 0.43 µM; with SN12C renal it was 1.52 µM; in the assay on TK-10 renal, 9.01 µM. Further, the TGI with BT-549 breast was more than 100 µM; in the assay on CAKI-1 renal it was more than 100 µM; in the assay on HCC-2998 colon, 1.76 µM; in the assay with HOP-92 NSCLC, 98.8 µM; in the assay on SF-295 CNS, more than 100 µM; with SN12C renal it was more than 100 µM. In addition, the TGI with TK-10 renal is more than 100 µM.

With `COc1cc(C)c2sc3ccccc3c(=O)c2c1NCCN(C)C`, the GI50 in the assay on 786-0 renal is 8.34 µM; in the assay on BT-549 breast, 12.5 µM; in the assay on CAKI-1 renal, 5.87 µM; in the assay on HCC-2998 colon, 2.99 µM; with HCT-116 colon it was 3.73 µM; with HOP-92 NSCLC it was 1.51 µM. Further, the GI50 in the assay on SF-295 CNS is 6.25 µM; with SK-OV-3 ovarian, 10.9 µM; in the assay on SN12C renal it was 5.41 µM; with TK-10 renal, 8.83 µM. Besides, the TGI in the assay with 786-0 renal amounted to 22.2 µM; with BT-549 breast, 25.4 µM; in the assay with CAKI-1 renal, 19.4 µM; in the assay on HCC-2998 colon, 9.03 µM; in the assay with HCT-116 colon, 13.6 µM; in the assay on HOP-92 NSCLC, 8.64 µM. Also, the TGI amounted to 19.5 µM in the assay with SF-295 CNS, 23.6 µM in the assay on SK-OV-3 ovarian, 20 µM in the assay with SN12C renal and 21.2 µM in the assay with TK-10 renal.

For the molecule `CC(=O)OC1=CC2(OC(C)=O)CC(C)(C)C1C1C(=O)C=CC(=O)C12` (configuration not stated), the TGI was more than 81.7 µM in the assay with 786-0 renal; 32.3 µM in the assay with BT-549 breast; more than 100 µM in the assay on CAKI-1 renal; more than 100 µM with HCC-2998 colon; more than 89.4 µM in the assay on HCT-116 colon; more than 100 µM with HOP-92 NSCLC. The TGI is more than 100 µM in the assay with SF-295 CNS, more than 100 µM in the assay on SK-OV-3 ovarian, more than 80.5 µM in the assay on SN12C renal and more than 100 µM in the assay with TK-10 renal.
